Measured values published in article PMC11456916, “A screen for cell envelope stress uncovers an inhibitor of prolipoprotein diacylglyceryl transferase, Lgt, in Escherichiacoli” (iScience, 2024).

Tested on: 356 CRISPRi constructs in E. coli ΔtolC-pore
Test: CRISPRi collection fitness screen with sub-inhibitory compound
Type: cell-based
Conditions: for Growth represented as mean colony biomass: 1μg/ml MAC0452936, 6ng/ml LolCDE-in-1, 250 ng/ml Vancomycin, 7 ng/ml CHIR090, n=4; for Growth, mean colony biomass (n=4): + 7 ng/ml CHIR090
From the text: To that end, we screened the E. coli CRISPRi collection in the ΔtolC-pore genetic background with a sub-inhibitory concentration of MAC-0452936 and measured the fitness of all 356 CRISPRi mutants (Figure 4C and Data S4). […] To that end, we introduced either an arabinose inducible copy of lgt supplied on the pCHAP9231 plasmid[48] or the pBAD19s plasmid as a control into E. coli ΔtolC-pore and tested the potency of MAC-0452936 (Figure 4E). […] To test this hypothesis, we constructed E. coli ΔlgtΔtolC-pore with pCHAP9231[48] so that lgt expression was driven solely by arabinose from the plasmid.
For screens of the CRISPRi collection with MAC-0452936, the mobile CRISPRi collection was first conjugated into E. coli ΔtolC-pore as previously described.[30] The CRISPRi collection was then arrayed on solid agar at 1536 density using the Singer-ROTOR, such that each CRISPRi strain is arrayed in technical quadruplicate. […] The screens were conducted without CRISPRi induction, using just the 5–10% basal knockdown from the pFD152 CRISPRi plasmid. Following overnight growth, plates were imaged using high-resolution scanners (Epson Perfection v750), and colony biomass for each mutant was determined.

[1] = sub-inhibitory (¼ MIC) concentration, LB agar, basal knockdown

SMILES: C[C@@H](O)[C@H](NC(=O)c1ccc(C#Cc2ccc(CN3CCOCC3)cc2)cc1)C(=O)NO [CHIR090]
- Growth represented as mean colony biomass (gRNA accA): 0.9728
- Growth, mean colony biomass (n=4) (gRNA aceF): 1.1
- Growth, mean colony biomass (n=4) (gRNA alaS): 1.087
- Growth, mean colony biomass (n=4) (gRNA argS): 1.119
- Growth, mean colony biomass (n=4) (gRNA asnS): 1.015
- Growth, mean colony biomass (n=4) (gRNA bamA): 1.043
- Growth, mean colony biomass (n=4) (gRNA bamD): 1.088
- Growth, mean colony biomass (n=4) (gRNA bioA): 1.01
- Growth, mean colony biomass (n=4) (gRNA can): 1.059
- Growth represented as mean colony biomass (gRNA cca): 0.9249
- Growth represented as mean colony biomass (gRNA coaA): 0.8479
- Growth, mean colony biomass (n=4) (gRNA csrA): 1.056
- Growth represented as mean colony biomass (gRNA cydA): 1.062
- Growth represented as mean colony biomass (gRNA cydX): 1.061
- Growth represented as mean colony biomass (gRNA dapD): 0.9522
- Growth represented as mean colony biomass (gRNA dapE): 1.007
- Growth represented as mean colony biomass (gRNA der): 0.9768
- Growth represented as mean colony biomass (gRNA dfp): 0.8989
- Growth, mean colony biomass (n=4) (gRNA dnaC): 1.065
- Growth represented as mean colony biomass (gRNA dnaE): 1.058
- Growth represented as mean colony biomass (gRNA dnaN): 1.037
- Growth represented as mean colony biomass (gRNA dnaX): 0.9219
- Growth, mean colony biomass (n=4) (gRNA dut): 0.9955
- Growth represented as mean colony biomass (gRNA eno): 0.9728
- Growth represented as mean colony biomass (gRNA era): 1.02
- Growth represented as mean colony biomass (gRNA fabA): 0.9775
- Growth represented as mean colony biomass (gRNA fabG): 1.01
- Growth represented as mean colony biomass (gRNA fabI): 0.9675
- Growth represented as mean colony biomass (gRNA fdx): 0.979
- Growth represented as mean colony biomass (gRNA fldA): 1.057
- Growth, mean colony biomass (n=4) (gRNA folA): 0.9636
- Growth represented as mean colony biomass (gRNA folB): 1.017
- Growth, mean colony biomass (n=4) (gRNA folC): 1.012
- Growth represented as mean colony biomass (gRNA folE): 0.9169
- Growth represented as mean colony biomass (gRNA folP): 0.9924
- Growth represented as mean colony biomass (gRNA frr): 0.9411
- Growth, mean colony biomass (n=4) (gRNA ftsA): 0.9154
- Growth represented as mean colony biomass (gRNA gapA): 0.9821
- Growth, mean colony biomass (n=4) (gRNA glmS): 1.055
- Growth represented as mean colony biomass (gRNA glmU): 1.014
- Growth represented as mean colony biomass (gRNA gltX): 0.9512
- Growth, mean colony biomass (n=4) (gRNA glyA): 1.052
- Growth represented as mean colony biomass (gRNA groS): 0.9583
- Growth represented as mean colony biomass (gRNA grpE): 1.032
- Growth represented as mean colony biomass (gRNA guaA): 0.9865
- Growth, mean colony biomass (n=4) (gRNA hemD): 1.036
- Growth represented as mean colony biomass (gRNA hemG): 0.9689
- Growth represented as mean colony biomass (gRNA hemH): 0.992
- Growth represented as mean colony biomass (gRNA hemL): 0.9608
- Growth represented as mean colony biomass (gRNA higA): 1.023
- Growth represented as mean colony biomass (gRNA hisS): 0.9896
- Growth represented as mean colony biomass (gRNA holD): 0.9599
- Growth represented as mean colony biomass (gRNA hscA): 0.9776
- Growth, mean colony biomass (n=4) (gRNA infA): 1.073
- Growth represented as mean colony biomass (gRNA infC): 1.06
- Growth represented as mean colony biomass (gRNA iscU): 0.9911
- Growth represented as mean colony biomass (gRNA ispB): 0.9696
- Growth represented as mean colony biomass (gRNA ispF): 0.9551
- Growth, mean colony biomass (n=4) (gRNA leuS): 1.366
- Growth, mean colony biomass (n=4) (gRNA lexA): 1.376
- Growth represented as mean colony biomass (gRNA lolC): 0.8957
- Growth, mean colony biomass (n=4) (gRNA lptA): 1.212
- Growth, mean colony biomass (n=4) (gRNA lptB): 1.0261
- Growth represented as mean colony biomass (gRNA lptC): 1.089
- Growth represented as mean colony biomass (gRNA lptE): 1.06
- Growth represented as mean colony biomass (gRNA lptF): 1.019
- Growth represented as mean colony biomass (gRNA lptG): 1.007
- Growth represented as mean colony biomass (gRNA lpxC): 0.3105
- Growth represented as mean colony biomass (gRNA lpxD): 1.005
- Growth, mean colony biomass (n=4) (gRNA mnmA): 1.028
- Growth, mean colony biomass (n=4) (gRNA mrdB): 0.9292
- Growth represented as mean colony biomass (gRNA mreB): 0.9175
- Growth represented as mean colony biomass (gRNA mreC): 0.8842
- Growth, mean colony biomass (n=4) (gRNA msbA): 1.129
- Growth, mean colony biomass (n=4) (gRNA mukF): 0.98
- Growth represented as mean colony biomass (gRNA murB): 1.054
- Growth represented as mean colony biomass (gRNA murC): 0.9542
- Growth, mean colony biomass (n=4) (gRNA murI): 1.202
- Growth, mean colony biomass (n=4) (gRNA nadK): 1.005
- Growth represented as mean colony biomass (gRNA nusB): 1.054
- Growth represented as mean colony biomass (gRNA plsB): 0.9093
- Growth, mean colony biomass (n=4) (gRNA prmC): 0.9966
- Growth represented as mean colony biomass (gRNA proS): 0.9867
- Growth, mean colony biomass (n=4) (gRNA psd): 1.319
- Growth, mean colony biomass (n=4) (gRNA pssA): 0.939
- Growth, mean colony biomass (n=4) (gRNA ptsI): 1.093
- Growth represented as mean colony biomass (gRNA racR): 0.9688
- Growth, mean colony biomass (n=4) (gRNA rho): 0.9866
- Growth represented as mean colony biomass (gRNA ribA): 0.9235
- Growth represented as mean colony biomass (gRNA ribC): 0.9738
- Growth, mean colony biomass (n=4) (gRNA ribD): 1.097
- Growth represented as mean colony biomass (gRNA ribF): 0.9595
- Growth represented as mean colony biomass (gRNA rimM): 0.9147
- Growth represented as mean colony biomass (gRNA rluD): 1.0007
- Growth, mean colony biomass (n=4) (gRNA rne): 1.043
- Growth represented as mean colony biomass (gRNA rpe): 1.042
- Growth, mean colony biomass (n=4) (gRNA rplA): 0.9782
- Growth represented as mean colony biomass (gRNA rplD): 0.927
- Growth represented as mean colony biomass (gRNA rplE): 1.02
- Growth represented as mean colony biomass (gRNA rplJ): 0.8734
- Growth represented as mean colony biomass (gRNA rplO): 0.8878
- Growth, mean colony biomass (n=4) (gRNA rplP): 1.09
- Growth represented as mean colony biomass (gRNA rplQ): 1.099
- Growth represented as mean colony biomass (gRNA rplS): 0.9537
- Growth, mean colony biomass (n=4) (gRNA rplV): 1.004
- Growth, mean colony biomass (n=4) (gRNA rplX): 1.052
- Growth represented as mean colony biomass (gRNA rplY): 1.0779
- Growth, mean colony biomass (n=4) (gRNA rpmC): 0.9906
- Growth represented as mean colony biomass (gRNA rpmH): 1.001
- Growth represented as mean colony biomass (gRNA rpmI): 0.9513
- Growth, mean colony biomass (n=4) (gRNA rpoC): 1.121
- Growth, mean colony biomass (n=4) (gRNA rpoE): 1.013
- Growth represented as mean colony biomass (gRNA rpoH): 1.038
- Growth, mean colony biomass (n=4) (gRNA rpsC): 1.084
- Growth, mean colony biomass (n=4) (gRNA rpsD): 1.134
- Growth represented as mean colony biomass (gRNA rpsE): 0.9264
- Growth represented as mean colony biomass (gRNA rpsF): 1.096
- Growth, mean colony biomass (n=4) (gRNA rpsG): 0.9816
- Growth represented as mean colony biomass (gRNA rpsH): 0.9044
- Growth, mean colony biomass (n=4) (gRNA rpsK): 1.022
- Growth, mean colony biomass (n=4) (gRNA rpsL): 1.049
- Growth, mean colony biomass (n=4) (gRNA rpsM): 0.9866
- Growth, mean colony biomass (n=4) (gRNA rpsR): 1.0423
- Growth, mean colony biomass (n=4) (gRNA rpsT): 0.8858
- Growth represented as mean colony biomass (gRNA rsgA): 0.9517
- Growth represented as mean colony biomass (gRNA safA): 1.0001
- Growth, mean colony biomass (n=4) (gRNA secA): 1.136
- Growth represented as mean colony biomass (gRNA secY): 1.007
- Growth represented as mean colony biomass (gRNA serS): 1.071
- Growth represented as mean colony biomass (gRNA ssb): 1.053
- Growth represented as mean colony biomass (gRNA sucA): 0.9406
- Growth, mean colony biomass (n=4) (gRNA suhB): 1.008
- Growth represented as mean colony biomass (gRNA tilS): 1.04
- Growth represented as mean colony biomass (gRNA tonB): 0.9801
- Growth represented as mean colony biomass (gRNA trmD): 0.9934
- Growth represented as mean colony biomass (gRNA tsaB): 1.008
- Growth represented as mean colony biomass (gRNA tsaD): 0.9494
- Growth, mean colony biomass (n=4) (gRNA tsaE): 1.05
- Growth represented as mean colony biomass (gRNA tsf): 1.069
- Growth represented as mean colony biomass (gRNA tusE): 1.0146
- Growth represented as mean colony biomass (gRNA tyrS): 0.993
- Growth represented as mean colony biomass (gRNA ubiB): 0.9982
- Growth represented as mean colony biomass (gRNA ubiD): 0.963
- Growth, mean colony biomass (n=4) (gRNA waaA): 1.006
- Growth represented as mean colony biomass (gRNA ydaS): 0.976
- Growth represented as mean colony biomass (gRNA ydcD): 0.9913
- Growth represented as mean colony biomass (gRNA ydhL): 0.9285
- Growth, mean colony biomass (n=4) (gRNA yedN): 0.9909
- Growth represented as mean colony biomass (gRNA yejM): 0.9171
- Growth represented as mean colony biomass (gRNA yffS): 1.036
- Growth represented as mean colony biomass (gRNA ygeF): 1.069
- Growth, mean colony biomass (n=4) (gRNA ygeN): 0.9546
- Growth represented as mean colony biomass (gRNA yidC): 0.9824
- Growth represented as mean colony biomass (gRNA ymfE): 0.9789
- Growth represented as mean colony biomass (gRNA ymiB): 1.048
- Growth, mean colony biomass (n=4) (gRNA yqeL): 1.42
- Growth represented as mean colony biomass (gRNA yqgF): 1.058
- Growth, mean colony biomass (n=4) (gRNA zipA): 1.877
- growth defect of CRISPRi strains for the compound's molecular target (LolCDE complex and LpxC, respectively) [1]: strongest growth defect
- growth defect of the lgt CRISPRi mutant in the presence of compound [1]: did not demonstrate a growth defect
